The results in this text go back to US9260395B2, “Inhibitors of viral replication, their process of preparation and their therapeutical uses” (priority 2012, dated 2016).

The first assay concerns NL4-3 strain of HIV-1. Kind of assay: Cyto-protection (CellTiter-Glo viability) assay of MT4 cells infected with NL4-3 virus; inhibition of HIV replication. The format is cell-based. Particulars: Human immunodeficiency virus 1, NL43, 120 h; concentration leading to 50% of cyto-protection; MT4 cells infected with NL4-3 virus; 5 days incubation; CellTiter-Glo; read-out: EC50. How it is done:
Preparation of Virus stock of the NL4-3 strain of HIV-1 (Adachi et al, J Virol, 1986, 59(2):284-91).
The virus was prepared as described in Lopez et al (Lopez et al, Proc Natl Acad Sci USA., 2006, 103(40):14947-52, by transfecting 2×10^6 293 T cells (CRL-1573, ATCC) with following modifications: 6 μg of NL4-3 proviral DNA molecular clone were mixed with Fugene 6 transfection reagent from Roche, and used according to manufacturer's instructions. Forty eight hours later, transfected cell supernatants were harvested, filtered through 0.45-μm-pore-size filters, quantified for HIV-1 p24 antigen by using a Innotest HIV antigen mAb assay (Ingen) according to manufacturer's instructions, and used in infection experiments.
Serial dilutions of compounds to be tested were prepared in complete RPMI medium from 10 mM DMSO stock solutions, and I in 96 well Falcon 353072 Microtest[…]distributed in a volume of 20™ tissue culture plate, in order to get 0.5% DMSO final concentration in each well, after the addition of infected cells. Control wells contained also 0.5% DMSO final concentration but no compound.
MT4 cells (from the NIH AIDS Research and Reference Reagent Program) in RPMI complete medium were counted (10×10^6 cells per well in Falcon 353047 Multiwell™ 24 well) and infected for 2 hours at 37°, at a multiplicity of infection (moi) of 0.0001-0.00001. Cells were then centrifuged 3 min at 3000 rpm, and washed two times in 1 ml PBS to remove viruses that have not entered in cells. Infected cells were resuspended in complete RPMI at 1.25×10^6 cells/ml and 80 μl of infected cells were distributed in each well containing compound to be tested or control wells. The plates were then incubated at 37° for 5 days.
Assay used to measure the inhibition of HIV replication by the compounds (according to Gregg S. Jones et al., Antimicrobial Agents and Chemotherapy, 2009, 53 (3): 1194-1203).
After 5 days of incubation, microplates were equilibrated to room temperature for 30 mn and then 50 μl of CellTiter-Glo reagent (Promega Biosciences, Inc., Madison Wis., USA) were added to each well. Cell lysis was carried out at room temperature during 10 min, 150μl of lysates were transferred in Packard Optiplate 96 well, and luminescence was read on a Fluoroskan (Thermo Scientific).
The EC50, or effective concentration 50, is the concentration of compound leading to 50% of cyto-protection in a Cell-Titer-Glo® viability assay based on MT4 cells infected with NL4-3 virus (table 1).
In general terms: In ATP-based viability assays light output follows the ATP content of the culture.
`C=C(c1nn(C)c(C(OC(C)(C)C)C(=O)O)c1-c1ccc2c(c1)CCCO2)C1CCCC1` (stereo not shown) [Example 23, 2-(tert-butoxy)-2-[3-(1-cyclopentylethenyl)-4-(3,4-dihydro-2H-1-benzopyran-6-yl)-1-methyl-1H-pyrazol-5-yl]acetic acid]: the EC50 (as a rule, the concentration at which the effect is half-maximal) stood at 2000 nM. Turning to `Cn1nc(C2CCCC2)c(-c2ccc3c(c2)CCCO3)c1C(OC(C)(C)C)C(=O)O` (stereo not shown) [Example 19, 2-(tert-butoxy)-2-[3-cyclopentyl-4-(3,4-dihydro-2H-1-benzopyran-6-yl)-1-methyl-1H-pyrazol-5-yl]acetic acid], the EC50 came out at 3900 nM. Same read-out and setting: with `Cn1nc(C2=CCC(C)(C)CC2)c(-c2ccc3c(c2)CCCO3)c1C(OC(C)(C)C)C(=O)O` (stereo not shown) [Example 14, 2-(tert-butoxy)-2-[4-(3,4-dihydro-2H-1-benzopyran-6-yl)-3-(4,4-dimethylcyclohex-1-en-1-yl)-1-methyl-1H-pyrazol-5-yl]acetic acid] the figure was 1700 nM. Still for that read-out and setting: with `Cn1nc(-c2ccccc2)c(-c2ccc3c(c2)CCCO3)c1C(OC(C)(C)C)C(=O)O` (stereo not shown) [Example 2, 2-(tert-butoxy)-2-[4-(3,4-dihydro-2H-1-benzopyran-6-yl)-1-methyl-3-phenyl-1H-pyrazol-5-yl]acetic acid] the figure was 680 nM. On the same count and under the same terms, in the case of `Cc1c(-c2c(-c3cccs3)nn(C)c2C(OC(C)(C)C)C(=O)O)cc(F)c2c1CCCO2` (stereo not shown) [Example 10, 2-(tert-butoxy)-2-[4-(8-fluoro-5-methyl-3,4-dihydro-2H-1-benzopyran-6-yl)-1-methyl-3-(thiophen-2-yl)-1H-pyrazol-5-yl]acetic acid] it was 1100 nM; in that of `Cn1nc(-c2ccc(Cl)s2)c(-c2ccc3c(c2)CCCO3)c1C(OC(C)(C)C)C(=O)O` (stereo not shown) [Example 36, 2-(tert-butoxy)-2-[3-(5-chlorothiophen-2-yl)-4-(3,4-dihydro-2H-1-benzopyran-6-yl)-1-methyl-1H-pyrazol-5-yl]acetic acid], 2700 nM; in that of `Cn1nc(C2=CCCC2(C)C)c(-c2ccc3c(c2)CCCO3)c1C(OC(C)(C)C)C(=O)O` (stereo not shown) [Example 32, 2-(tert-butoxy)-2-[4-(3,4-dihydro-2H-1-benzopyran-6-yl)-3-(5,5-dimethylcyclopent-1-en-1-yl)-1-methyl-1H-pyrazol-5-yl]acetic acid], 3200 nM. Turning to `Cn1nc(-c2ccccn2)c(-c2ccc3c(c2)CCCO3)c1C(OC(C)(C)C)C(=O)O` (stereo not shown) [Example 9, 2-(tert-butoxy)-2-[4-(3,4-dihydro-2H-1-benzopyran-6-yl)-1-methyl-3-(pyridin-2-yl)-1H-pyrazol-5-yl]acetic acid], the EC50 came to 3700 nM.

`Cn1nc(C2=CCCCC2)c(-c2ccc3c(c2)CCCO3)c1C(OC(C)(C)C)C(=O)O` (stereo not shown) [Example 13, 2-(tert-butoxy)-2-[3-(cyclohex-1-en-1-yl)-4-(3,4-dihydro-2H-1-benzopyran-6-yl)-1-methyl-1H-pyrazol-5-yl]acetic acid]: the EC50 is 170 nM. On the same count and under the same terms, with `Cn1nc(C2=CCCC2)c(-c2ccc3c(c2)CCCO3)c1C(OC(C)(C)C)C(=O)O` (stereo not shown) [Example 12, 2-(tert-butoxy)-2-[3-(cyclopent-1-en-1-yl)-4-(3,4-dihydro-2H-1-benzopyran-6-yl)-1-methyl-1H-pyrazol-5-yl]acetic acid] the figure was 240 nM. On the same count and under the same terms, with `C=C(C)c1nn(C)c(C(OC(C)(C)C)C(=O)O)c1-c1ccc2c(c1)CCCO2` (stereo not shown) [Example 22, 2-(tert-butoxy)-2-[4-(3,4-dihydro-2H-1-benzopyran-6-yl)-1-methyl-3-(prop-1-en-2-yl)-1H-pyrazol-5-yl]acetic acid] the figure was 8000 nM; with `Cc1c(-c2c(-c3cccs3)nn(C)c2C(OC(C)(C)C)C(=O)O)ccc2c1CCCO2` (stereo not shown) [Example 7, 2-(tert-butoxy)-2-[1-methyl-4-(5-methyl-3,4-dihydro-2H-1-benzopyran-6-yl)-3-(thiophen-2-yl)-1H-pyrazol-5-yl]acetic acid], 410 nM. On the same count and under the same terms, with `Cn1nc(-c2ccsc2)c(-c2ccc3c(c2)CCCO3)c1C(OC(C)(C)C)C(=O)O` (stereo not shown) [Example 4, 2-(tert-butoxy)-2-[4-(3,4-dihydro-2H-1-benzopyran-6-yl)-1-methyl-3-(thiophen-3-yl)-1H-pyrazol-5-yl]acetic acid] the figure was 280 nM; with `Cn1nc(-c2nccs2)c(-c2ccc3c(c2)CCCO3)c1C(OC(C)(C)C)C(=O)O` (stereo not shown) [Example 8, 2-(tert-butoxy)-2-[4-(3,4-dihydro-2H-1-benzopyran-6-yl)-1-methyl-3-(1,3-thiazol-2-yl)-1H-pyrazol-5-yl]acetic acid], 3700 nM.

As for `CC(C)(C)OC(C(=O)O)c1c(-c2ccc3c(c2)CCCO3)c(-c2cccs2)nn1CC(F)(F)F` (stereo not shown) [Example 34, 2-(tert-butoxy)-2-[4-(3,4-dihydro-2H-1-benzopyran-6-yl)-3-(thiophen-2-yl)-1-(2,2,2-trifluoroethyl)-1H-pyrazol-5-yl]acetic acid], the EC50 turned out to be 3500 nM. Still for that read-out and setting: in the case of `Cn1nc(C2=CC(O)CCC2)c(-c2ccc3c(c2)CCCO3)c1C(OC(C)(C)C)C(=O)O` (stereo not shown) [Example 43, 2-(tert-butoxy)-2-[4-(3,4-dihydro-2H-1-benzopyran-6-yl)-3-(3-hydroxycyclohex-1-en-1-yl)-1-methyl-1H-pyrazol-5-yl]acetic acid] it was 9200 nM.

Turning to `CCCc1nn(C)c(C(OC(C)(C)C)C(=O)O)c1-c1ccc2c(c1)CCCO2` (stereo not shown) [Example 30, 2-(tert-butoxy)-2-[4-(3,4-dihydro-2H-1-benzopyran-6-yl)-1-methyl-3-propyl-1H-pyrazol-5-yl]acetic acid], the EC50 is 32000 nM. Same read-out and setting: in the case of `CC1CCC=C1c1nn(C)c(C(OC(C)(C)C)C(=O)O)c1-c1ccc2c(c1)CCCO2` (stereo not shown) [Example 26, 2-(tert-butoxy)-2-[4-(3,4-dihydro-2H-1-benzopyran-6-yl)-1-methyl-3-(5-methylcyclopent-1-en-1-yl)-1H-pyrazol-5-yl]acetic acid] it was 630 nM; in that of `Cn1nc(-c2csc3ccccc23)c(-c2ccc3c(c2)CCCO3)c1C(OC(C)(C)C)C(=O)O` (stereo not shown) [Example 38, 2-[3-benzo[b]thiophen-3-yl-4-(3,4-dihydro-2H-1-benzopyran-6-yl)-1-methyl-1H-pyrazol-5-yl]-2-(tert-butoxy)acetic acid], 2200 nM; in that of `CC1CCCC=C1c1nn(C)c(C(OC(C)(C)C)C(=O)O)c1-c1ccc2c(c1)CCCO2` (stereo not shown) [Example 18, 2-(tert-butoxy)-2-[4-(3,4-dihydro-2H-1-benzopyran-6-yl)-1-methyl-3-(6-methylcyclohex-1-en-1-yl)-1H-pyrazol-5-yl]acetic acid], 500 nM. Turning to `CC1C=C(c2nn(C)c(C(OC(C)(C)C)C(=O)O)c2-c2ccc3c(c2)CCCO3)CCC1` (stereo not shown) [Example 17, 2-(tert-butoxy)-2-[4-(3,4-dihydro-2H-1-benzopyran-6-yl)-1-methyl-3-(3-methylcyclohex-1-en-1-yl)-1H-pyrazol-5-yl]acetic acid], the EC50 worked out at 740 nM.

Turning to `CC(C)C1CC=C(c2c(-c3ccccc3)nn(C)c2C(OC(C)(C)C)C(=O)O)CC1` (stereo not shown) [Example 41, 2-(tert-butoxy)-2-{1-methyl-3-phenyl-4-[4-(propan-2-yl)cyclohex-1-en-1-yl]-1H-pyrazol-5-yl}acetic acid], the EC50 was found to be 6000 nM. Same read-out and setting: with `Cn1nc(-c2ccncc2)c(-c2ccc3c(c2)CCCO3)c1C(OC(C)(C)C)C(=O)O` (stereo not shown) [Example 40, 2-(tert-butoxy)-2-[4-(3,4-dihydro-2H-1-benzopyran-6-yl)-1-methyl-3-(pyridin-4-yl)-1H-pyrazol-5-yl]acetic acid] the figure was 6000 nM; with `Cn1nc(-c2ccccc2)c(C2=CCC(C)(C)CC2)c1C(OC(C)(C)C)C(=O)O` (stereo not shown) [Example 1, 2-(tert-butoxy)-2-[4-(4,4-dimethylcyclohex-1-en-1-yl)-1-methyl-3-phenyl-1H-pyrazol-5-yl]acetic acid], 480 nM.

The same assay, now with this note: Human immunodeficiency virus 1, NL43, MT4, 120 h.
`Cn1nc(C2=CC3CCC2C3)c(-c2ccc3c(c2)CCCO3)c1C(OC(C)(C)C)C(=O)O` (stereo not shown) [Example 15, 2-(3-{bicyclo[2.2.1]hept-2-en-2-yl}-4-(3,4-dihydro-2H-1-benzopyran-6-yl)-1-methyl-1H-pyrazol-5-yl)-2-(tert-butoxy)acetic acid] came in with an EC50 of 550 nM.
